Reference: US12097213B2, “Sequential treatment of cancers using 6-thio-dG, checkpoint inhibitors and radiation therapy” (The Board of Regents of the University of Texas System, priority 2020, dated 2024)

Columns and labels:
[1] = tested on: tumor-specific T cells; test: IFN-γ ELISPOT of splenocytes / draining lymph node cells; type: in vivo, mouse; details: splenocytes re-stimulated with irradiated MC38 tumor cells 48 hrs; 3 mg/kg, days 7, 8, 9
Method: IFN-γ enzyme-linked immunosorbent spot assay (ELISPOT). MC38 tumors were injected subcutaneously on the right flank of C57BL/6. For 6-thio-dG single treatment, 3 mg/kg 6-thio-dG was intraperitoneally given on days 7, 8 and 9; for PD-L1 blockade combination therapy in MC38 model, 3 mg/kg 6-thio-dG was given on day 10 and day 11, 50 μg PD-L1 was intraperitoneally injected on day 11. 7 days after last treatment, tumor draining lymphoid and spleen from tumor-bearing mice were collected and single-cell suspension was prepared. Irradiated MC38 tumor cells and control LLC tumor cells were used to re-stimulate the tumor-specific T cells. 1.5×10^5 draining lymph nodes cells or splenocytes and 7.5×10^4 irradiated tumor cells were co-cultured for 48 hrs, and ELISPOT assay was performed using the IFN-γ ELISPOT kit (BD Bioscience) according to the manufacturer's instructions. IFN-γ spots were enumerated with the CTL-ImmunoSpot® S6 Analyzer (Cellular Technology Limited).

[2] = tested on: cancer cells; details: depending on cell type, even including therapy resistant cancers; read-out: observed IC50 values; cited from earlier work
[3] = tested on: CT26 tumor cells; test: CT26 tumor growth and treatment in mice; type: in vivo, mouse; details: BALB/C mice; 3 mg/kg, three days treatment (days 5, 6, 7)
Method: Tumor growth and treatment. A total of 5×10^5 MC38, 5×10^5 CT26 or 1×10^6 LLC cells were inoculated subcutaneously into right dorsal flanks of the mice in 100 μL phosphate buffered saline (PBS). Tumor-bearing mice were randomly grouped into treatment groups when tumors grew to around 100 mm^3. For 6-thio-dG single treatment, 3 mg/kg 6-thio-dG was intraperitoneally given on days 7, 8 and 9 in MC38 tumor and LLC tumor and on days 5, 6, 7 for CT26 tumor. For CSF1R, NKL.1, CD4+ and CD8+ T cell depletion, 200 μg of antibodies were intraperitoneally injected 1 day before treatment initiation and then twice a week for 2 weeks. For PD-L1 blockade combination therapy in MC38 model, 6-thio-dG was given on day 10 and day 11, 50 μg PD-L1 was intraperitoneally injected on day 13 and 17. For PD-L1 blockade combination therapy in LLC model, 6-thio-dG was given on day 4, 5, 6, 10 and 11, 200 μg PD-L1 was intraperitoneally injected on day 8 and 13. Tumor volumes were measured by the length (a), width (b) and height (h) and calculated as tumor volume=abh/2.

[4] = tested on: MC38 cells; test: Cell viability assay (CellTiter 96), MC38; type: cell-based; details: Mus musculus, MC-38, 120 h; cells treated for 5 days; read-out: IC50 concentration, cell viability
Method: (§1) Cell viability assay. For determination of IC50 with cell proliferation assays, murine and human cancer cell lines were screened with 6-thio-dG with a 2-fold dilution series in 8 different points in 96-well plates. Cells were plated 24 hrs prior to the addition of drug, incubated for 4-5 days, and assayed using CellTiter 96® Aqueous One Solution Cell Proliferation Assay according to the manufacturer's instructions (Promega). Cell number per well ranged from 1,000 to 10,000 cells per well inversely proportional to doubling times. Dose response curves were generated and IC50s calculated using Graphpad Prism. All samples were analyzed in triplicate and standard deviations are from 2-3 independent experiments.

[5] = tested on: LLC murine lung cancer cells; test: Cell viability assay (CellTiter 96), LLC; type: cell-based, mouse; details: treated for 4 days
Method: as §1

[6] = tested on: DCs co-cultured with MC38 cells; test: Detection of EdU-labeled tumor DNA in bone marrow derived dendritic cells; type: cell-based, mouse; details: MC38 labeled with 25 μM EdU, 1 μM 6-thio-dG
Method: Detection of DNA in Bone Marrow Derived Dendritic Cells. Cells were labeled with EdU as described previously (Min et al., 2019). Briefly, 100,000 MC38 cells were seeded to 6-well plate and labeled with 25 μM EdU. Two days later, cells were washed out and treated with 1 μM 6-thio-dG for 24 hrs. Cells were washed out again and co-cultured with BMDCs for overnight. Next day, DCs were sorted out with magnetic beads, washed, fixed and cytospun. Slides were then stained with 6-carboxytetramethlyrhodamine fluorescent azide (Invitrogen) in fresh homemade EdU-staining solution (PBS containing 1 mM CuSO4, 2 mM ascorbic acid) for 30 min. Slides were then washed vigorously with PBS for at least 1 hr, and then telomere FISH steps using a FAM-TelG probe were followed as described in “Telomere dysfunction Induced Foci (TIF) and micronuclei assays” method parts. Images were captured at 63× magnification with an Axio Imager Z2 equipped with an automatic metaphase capture system (Coolcubel camera) and analyzed with ISIS software (Metasystems).

[7] = tested on: mouse BMDC co-cultured with HCT116; test: Cytosolic DNA extraction and qPCR in DCs co-cultured with HCT116; type: cell-based; details: HCT116 pretreated with 500 nM 6-thio-dG; co-culture 4 hrs
Method: Cytosolic DNA extraction and quantitative real-time PCR. HCT 116 cells were pretreated with 500 nM 6-thio-dG for 4 hrs. Then drug was washed out, tumor cells were continued to culture for 72 hrs and harvest on the same day as BMDC harvest. Then HCT116 cells were mixed 1:1 with 1×10^6 BMDC for 4 hrs. BMDC was purified and divided into two equal aliquots.
One aliquot was extracted for total genomic DNA with Purelink Genomic DNA kit (Invitrogen) and served as normalization control. The other aliquot was resuspended in 100 μL cytosolic extract buffer containing 150 mM NaCl, 50 mM HEPES and […] digitonin (Sigma) and incubated for 10 mins at RT for plasma membrane permeabilization (West et al., 2015). Then cells were centrifuged to pellet intact cells. The cytosolic supernatants were collected and centrifuged at 12000 g for 10 mins to pellet the remaining cellular debris. Then cytosolic DNA was extracted with Purelink Genomic DNA kit (Invitrogen). Quantitative PCR was performed on both whole-cell extracts and cytosolic fractions using human DNA primers and mouse DNA primers (Xu et al., 2017).
Quantitative real-time PCR. […]

[8] = tested on: CT26 murine colon cancer cells; test: Cell viability assay (CellTiter 96), CT26; type: cell-based, mouse
Method: as §1

## Nc1nc2c(ncn2[C@H]2C[C@H](O)[C@@H](CO)O2)c(=S)[nH]1 [6-thio-dG, 6-thio-2′-deoxyguanosine]
[1]
  tumor-specific cytotoxic T cell responses (IFN-γ producing T cells): enhanced
[2]
  IC50: 700 to 2900 nM
[3]
  tumor growth: significant tumor growth delay
[4]
  IC50: 370 nM
[5]
  cell viability in vitro: cell viability inhibition
[6]
  telomere co-localization with EdU in EdU+ DCs: increase
[7]
  human DNAs (MT-CO1 and human 18S) in the cytosol of mouse DCs: increase
[8]
  cell viability in vitro: cell viability inhibition
